Test results as given in patent EP4389113A1, “DOSAGE FORM FOR INTRAMEDULLARY INJECTION OR IMPLANTATION COMPRISING ELTROMBOPAG FOR USE IN THE IMPROVEMENT OF HEMATOPOIETIC STEM CELL TRANSPLANTATION” (PK MED, priority 2022, dated 2024).

Columns and labels:
human MMP-8 = biological target: T1, human MMP-8 (Homo sapiens, UniProt P22894); experiment: Proteolysis of SDF-1α by activated MMP-8, multiplex western blot; type: biochemical
T1 construct: purchased R&D systems 908-MP
Protocol: (§1) • Particle size was determined using a Malvern Mastersizer MS3000 laser diffraction particle size analyzer. A 1 mg/ml microparticles in deionized water preparation was introduced in the apparatus and the measurement run 3 times. The results shown in the examples are the mean of the three measures. • Eltrombopag microparticle drug load was determined by first solubilizing 10 mg of drug-loaded polymeric microparticles in 2,5 mL of an acetonitrile/water mixture at a 80/20 v/v ratio. The medium was then centrifuged for 15 min at 4000 rpm and the supernatant filtrated through a 0.45 µm PTFE filter (Acrodisc PTFE). A 2 ml aliquot of the filtrated supernatant was then analyzed by HPLC to determine the microparticle drug load. HPLC analysis was conducted using a silica-based reversed-phase C18 column [Kinetex C18, 100mm × 4,6 mm, 2,6 µm particle size] and a mobile phase consisting in [acetonitrile/ammonium formate (10 mM) 80/20 v/v adjusted at pH 2]. The flow rate was set at 0,5 mL/min, the injection volume was 10µL and the UV detection was set at 244 nm. • For incubation of Eltrombopag olamine with activated human proteases, proMMP-8 and pro MMP-9 proteases were first activated. Human proMMP-8 (Cat. no. 908-MP, R&D systems) at 100 µg/ml in buffer containing 50 mM Tris, 150 mM NaCl (sodium chloride), 5 mM CaCl2 (calcium chloride) and 0.01% tween 20 (pH 7.6) was activated by incubation with 1 mM p-aminophenylmercuric acetate for 1h at 37°C. Human proMMP-9 was expressed in Sf9 cells, purified by gelatin-sepharose chromatography and activated by incubation with the catalytic domain of MMP-3 (cat. No. 444217, Merck Millipore). Specifically, human proMMP-9 at 920 µg/ml in the same described buffer as for MMP-8 activation was incubated with the catalytic domain of MMP-3 at a molar ratio of 1/100 (MMP-3/MMP-9) for 2h at 37°C in. The final concentration of MMP-9 was 10 µM and the final concentration of MMP-3 was 0.1 µM. Concentrated eltrombopag olamine solution was prepared by solubilization in water at a concentration of 10 mg/ml for 24h on rotor at 4°C, and further diluted at the final concentration needed. Activated MMP-8 or MMP-9 were then incubated at a final concentration of 625 nM in Eltrombopag olamine at different concentrations (50 µM, 10 µM, 1 µM and 0.1 µM) in a final volume of 3µl for 30 minutes at 37°C in calcium-free buffer containing 50 mM Tris, 150 mM NaCl, 0.01% tween 20 (pH 7.6) using low protein-binding tubes (Protein LoBind tubes, Eppendorf). • Incubation of human SDF-1α (Cat. no. 300-28A, Peprotech) in the solution containing the activated human proteases and eltrombopag olamine was done at a MMP/SDF-1 molar ratio of 1/5 in the same calcium-free buffer and tubes described, with a final SDF-1 α concentration of 3.125 µM and a final volume of 4µl at 37°C for 2h. A negative control without eltrombopag olamine was similarly prepared. • SDF-1 proteolysis was analyzed by multiplex western blot. All samples were diluted in reducing loading buffer (10% β-mercaptoethanol, 0.1% bromophenol blue, 4% SDS (sodium dodecyl sulfate), 20% glycerol, 125 mM Tris, pH 6.8) and boiled at 90°C for 20 min. Next, the equivalent of 100 ng SDF-1 was loaded onto Novex 16% tricine gels (Cat. no. EC6695BOX, Invitrogen). The Chameleon Duo Pre-stained Protein Ladder was used as a molecular weight using 6ul in one well. Proteins in the samples were separated by denaturing SDS-PAGE using tricine running buffer (100 mM Tris, 100 mM Tricine, 0.1% SDS, pH 8.3) under a constant voltage of 120V (±60 min). After electrophoresis, proteins were transferred to polyvinylidene difluoride (PVDF) membranes with the Trans-Blot Turbo Transfer System (Biorad) with Trans-Blot Turbo RTA Mini 0.45 µm low fluorescence PVDF Transfer Kit (Cat. No. 1704274, Biorad). […]

human MMP-9 = biological target: T2, human MMP-9 (Homo sapiens, UniProt P14780); experiment: Proteolysis of SDF-1α by activated MMP-9, multiplex western blot; type: biochemical
T2 construct: made in house; host or cells: Sf9 cells
Protocol: as §1

[1] = after oral administration of a 50 mg tablet; cited from earlier work
[2] = SDF-1 plus MMP-8 plus 0.1 µM eltrombopag olamine
[3] = SDF-1 plus MMP-8 plus 1 µM eltrombopag olamine
[4] = SDF-1 plus MMP-8 plus 10 µM eltrombopag olamine
[5] = SDF-1 plus MMP-8 plus 50 µM eltrombopag olamine
[6] = SDF-1 plus MMP-9 plus 0.1 µM eltrombopag olamine
[7] = SDF-1 plus MMP-9 plus 1 µM eltrombopag olamine
[8] = SDF-1 plus MMP-9 plus 10 µM eltrombopag olamine
[9] = SDF-1 plus MMP-9 plus 50 µM eltrombopag olamine

T2 sequence (P14780 107-707 limits assumed): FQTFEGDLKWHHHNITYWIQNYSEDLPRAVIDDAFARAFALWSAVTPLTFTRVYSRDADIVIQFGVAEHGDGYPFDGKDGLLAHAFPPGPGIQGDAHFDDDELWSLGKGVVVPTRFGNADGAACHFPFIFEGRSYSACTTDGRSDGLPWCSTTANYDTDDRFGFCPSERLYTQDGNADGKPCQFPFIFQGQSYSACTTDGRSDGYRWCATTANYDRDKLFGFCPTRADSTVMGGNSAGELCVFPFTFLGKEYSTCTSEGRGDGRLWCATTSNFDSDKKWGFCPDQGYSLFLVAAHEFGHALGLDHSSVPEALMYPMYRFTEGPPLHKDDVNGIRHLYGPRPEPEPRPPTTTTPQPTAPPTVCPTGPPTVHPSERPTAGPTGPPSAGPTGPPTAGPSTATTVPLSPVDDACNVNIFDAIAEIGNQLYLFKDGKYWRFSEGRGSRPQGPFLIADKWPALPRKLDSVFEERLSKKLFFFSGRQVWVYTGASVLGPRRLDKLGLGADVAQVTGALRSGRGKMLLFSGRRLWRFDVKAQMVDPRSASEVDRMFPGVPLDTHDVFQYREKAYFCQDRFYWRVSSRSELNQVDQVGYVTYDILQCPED
T1 sequence (P22894 101-467): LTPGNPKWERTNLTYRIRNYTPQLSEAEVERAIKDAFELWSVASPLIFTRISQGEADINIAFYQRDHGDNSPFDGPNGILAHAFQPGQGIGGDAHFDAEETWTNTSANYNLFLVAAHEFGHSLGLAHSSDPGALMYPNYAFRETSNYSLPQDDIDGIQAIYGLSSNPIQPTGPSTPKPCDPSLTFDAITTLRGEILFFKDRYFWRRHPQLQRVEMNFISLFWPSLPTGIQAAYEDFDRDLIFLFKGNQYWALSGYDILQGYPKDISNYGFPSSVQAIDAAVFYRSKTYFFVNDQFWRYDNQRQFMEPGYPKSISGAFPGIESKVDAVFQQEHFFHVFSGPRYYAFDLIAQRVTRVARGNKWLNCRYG

Q: Which results are given for `CC1=NN(c2ccc(C)c(C)c2)C(=O)/C1=N\Nc1cccc(-c2cccc(C(=O)O)c2)c1O.NCCO.NCCO` [eltrombopag olamine, 3'-{(2Z)-2-[1-(3,4-dimethylphenyl)-3-methyl-5-oxo-1,5-dihydro-4H-pyrazol-4-ylidene]hydrazino}-2'-hydroxy-3-biphenylcarboxylic acid - 2-aminoethanol (1:2)]?
A: intact SDF-1α retrieved (human MMP-8; MMP-8 in the presence of 50 µM eltrombopag olamine, only 3.5% in its absence): 30%; N-term intact SDF-1α (RFUs) (human MMP-8; [2]): 0,0006 RFUs; Ratio of intact/total SDF-1α (human MMP-8; [2]): 0,0001; Total SDF-1α (RFUs) (human MMP-8; [2]): 7,501 RFUs; N-term intact SDF-1α (RFUs) (human MMP-8; [3]): 0,0001 RFUs; Ratio of intact/total SDF-1α (human MMP-8; [3]): 0,0000; Total SDF-1α (RFUs) (human MMP-8; [3]): 7,986 RFUs; N-term intact SDF-1α (RFUs) (human MMP-8; [4]): 0,0001 RFUs; Ratio of intact/total SDF-1α (human MMP-8; [4]): 0,0000; Total SDF-1α (RFUs) (human MMP-8; [4]): 6,989 RFUs; Ratio of intact/total SDF-1α (human MMP-8; [5]): 0,0002; Total SDF-1α (RFUs) (human MMP-8; [5]): 10,430 RFUs; N-term intact SDF-1α (RFUs) (human MMP-8; SDF-1 plus MMP-8 plus 50 µM eltrombopag olamine, MMP/SDF-1α molar ratio 1/5, 37°C, 2h): 0,0020 RFUs; intact SDF-1α retrieved (human MMP-9; MMP-9 in the presence of 50 µM eltrombopag olamine, only 20% in its absence): 72%; N-term intact SDF-1α (RFUs) (human MMP-9; [6]): 0,013 RFUs; Ratio of intact/total SDF-1α (human MMP-9; [6]): 0,003; Total SDF-1α (RFUs) (human MMP-9; [6]): 3,951 RFUs; N-term intact SDF-1α (RFUs) (human MMP-9; [7]): 0,012 RFUs; Ratio of intact/total SDF-1α (human MMP-9; [7]): 0,003; Total SDF-1α (RFUs) (human MMP-9; [7]): 3,644 RFUs; N-term intact SDF-1α (RFUs) (human MMP-9; [8]): 0,010 RFUs; Ratio of intact/total SDF-1α (human MMP-9; [8]): 0,002; Total SDF-1α (RFUs) (human MMP-9; [8]): 4,142 RFUs; Ratio of intact/total SDF-1α (human MMP-9; [9]): 0,007; Total SDF-1α (RFUs) (human MMP-9; [9]): 4,687 RFUs; N-term intact SDF-1α (RFUs) (human MMP-9; SDF-1 plus MMP-9 plus 50 µM eltrombopag olamine, MMP/SDF-1α molar ratio 1/5, 37°C, 2h): 0,033 RFUs

Q: With `CC1=NN(c2ccc(C)c(C)c2)C(=O)/C1=N\Nc1cccc(-c2cccc(C(=O)O)c2)c1O` [EPAG, 3'-[(2Z)-[1-(3,4-dimethylphenyl)-1,5-dihydro-3-methyl-5-oxo-4H-pyrazol-4-ylidene]hydrazino]-2'-hydroxy-[1,1'-biphenyl]-3-carboxylic acid] as the molecule, how does the maximum plasmatic concentration [1] read?
A: 14 µM
